Test results from BindingDB's records for doi:10.1021/jm980294n (University of Utah, 1998).

Assays:
[1] = Inhibition of insulin receptor mediated mitogenesis of NIH3T3 cells
[2] = Inhibition of Epidermal growth factor receptor mediated mitogenesis of NIH3T3 cells

IC50 [1] | IC50 [2] | SMILES
242 µM | 11.3 µM | COc1ccc(Cc2nc(NC3=NC(=O)N(C)C3=O)n(C)c2Cc2ccc(O)cc2)cc1 [4-(5-(4-hydroxybenzyl)-4-(4-methoxybenzyl)-1-methyl-1H-imidazol-2-ylamino)-1-methyl-1H-imidazole-2,5-dione]
6.7 µM | 36.9 µM | COc1ccc(Cc2cn(Cc3ccc(OC)cc3)c(NC3=NC(=O)N(C)C3=O)n2)cc1 [5-[1,4-Bis-(4-methoxy-benzyl)-1H-imidazol-2-ylamino]-3-methyl-imidazole-2,4-dione]
9.8 µM | 22.7 µM | COc1ccc(Cc2cn(Cc3ccc(O)cc3)c(NC3=NC(=O)N(C)C3=O)n2)cc1 [5-[1-(4-Hydroxy-benzyl)-4-(4-methoxy-benzyl)-1H-imidazol-2-ylamino]-3-methyl-imidazole-2,4-dione]
